Measured values taken from PubChem BioAssay (NCI).
Where “and” joins values, the source holds several entries; their conditions need not be identical. Equal entries are not always repeated.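 A five-concentration, 48-hour dose response in 96-well plates underlies each endpoint, interpolated linearly between surrounding concentrations. The concentration for 50% growth inhibition is given as GI50. The concentration for full growth arrest is given as TGI.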

Columns and labels:
Assay in all cases: inhibition of tumour cell growth, NCI panel, 48 h
OVCAR-4 ovarian = tested on: OVCAR-4 ovarian
OVCAR-5 ovarian = tested on: OVCAR-5 ovarian
HT29 colon = tested on: HT29 colon
SF-268 CNS = tested on: SF-268 CNS
UACC-257 melanoma = tested on: UACC-257 melanoma
K-562 leukemia = tested on: K-562 leukemia
MDA-MB-435 = tested on: MDA-MB-435
SR leukemia = tested on: SR leukemia
RXF 393 renal = tested on: RXF 393 renal
MCF7 breast = tested on: MCF7 breast

NS(=O)(=O)c1ccc(-n2nc3c(c2-c2ccc(Cl)cc2)Cc2ccccc2-3)cc1
GI50 (OVCAR-4 ovarian): 15 µM | TGI (OVCAR-4 ovarian): 30.3 µM | GI50 (OVCAR-5 ovarian): 24.2 µM | TGI (OVCAR-5 ovarian): 57.4 µM | GI50 (HT29 colon): 15.4 µM | TGI (HT29 colon): 98.1 µM | GI50 (SF-268 CNS): 22.4 µM | TGI (SF-268 CNS): 50.4 µM | GI50 (UACC-257 melanoma): 20.6 µM | TGI (UACC-257 melanoma): 39.5 µM | GI50 (K-562 leukemia): 4.98 µM | TGI (K-562 leukemia): 17.2 µM | GI50 (MDA-MB-435): 17.8 µM | TGI (MDA-MB-435): 32.6 µM | GI50 (SR leukemia): 5.82 µM | TGI (SR leukemia): 21.3 µM | GI50 (RXF 393 renal): 17 µM | TGI (RXF 393 renal): 34.4 µM | GI50 (MCF7 breast): 22.9 µM | TGI (MCF7 breast): 54.8 µM

CN(CCCCCl)P(=O)(OCCS(=O)(=O)CC(NC(=O)CCC(N)C(=O)O)C(=O)NC(C(=O)O)c1ccccc1)OCC1OC(n2ccc(N)nc2=O)C(F)(F)C1O (centres undefined)
GI50 (OVCAR-4 ovarian): > 100 µM | TGI (OVCAR-4 ovarian): > 100 µM | GI50 (OVCAR-5 ovarian): 0.872 µM | TGI (OVCAR-5 ovarian): > 100 µM | GI50 (HT29 colon): 0.586 µM | TGI (HT29 colon): > 100 µM | GI50 (SF-268 CNS): 0.337 µM | TGI (SF-268 CNS): > 100 µM | GI50 (UACC-257 melanoma): 25 µM | TGI (UACC-257 melanoma): > 100 µM | GI50 (K-562 leukemia): 1.58 µM | TGI (K-562 leukemia): > 100 µM | GI50 (MDA-MB-435): 0.178 µM | TGI (MDA-MB-435): > 100 µM | GI50 (SR leukemia): 0.303 µM | TGI (SR leukemia): 11 µM | GI50 (RXF 393 renal): 0.744 µM | TGI (RXF 393 renal): > 45.1 µM | TGI (MCF7 breast): > 100 µM

NCCSSCCN
TGI (OVCAR-4 ovarian): > 100 µM | TGI (OVCAR-5 ovarian): > 100 µM | TGI (HT29 colon): > 100 µM | TGI (SF-268 CNS): > 100 µM | GI50 (UACC-257 melanoma): > 100 µM and 18.2 µM | TGI (UACC-257 melanoma): > 100 µM | TGI (K-562 leukemia): > 100 µM | TGI (MDA-MB-435): > 100 µM | TGI (SR leukemia): > 100 µM | TGI (RXF 393 renal): > 100 µM | TGI (MCF7 breast): > 100 µM

CC(C)c1c(-c2ccccc2)nc2c(C#N)c[nH]n2c1=O
GI50 (OVCAR-4 ovarian): 25.6 µM | TGI (OVCAR-4 ovarian): > 90 µM | GI50 (OVCAR-5 ovarian): 38.8 µM | TGI (OVCAR-5 ovarian): > 100 µM | GI50 (HT29 colon): 33.9 µM | TGI (HT29 colon): > 100 µM | GI50 (SF-268 CNS): 28.8 µM | TGI (SF-268 CNS): > 100 µM | GI50 (UACC-257 melanoma): 23.1 µM | TGI (UACC-257 melanoma): 66.9 µM | GI50 (K-562 leukemia): 33.8 µM | TGI (K-562 leukemia): > 100 µM | GI50 (MDA-MB-435): 31.1 µM | TGI (MDA-MB-435): > 100 µM | GI50 (SR leukemia): 31.1 µM | TGI (SR leukemia): > 100 µM | GI50 (RXF 393 renal): 29.3 µM | TGI (RXF 393 renal): > 93.4 µM | GI50 (MCF7 breast): 26.2 µM | TGI (MCF7 breast): > 91.5 µM

O=C(Nc1cc(C(F)(F)F)ccc1Cl)c1ccc(NC2=C(Cl)C(=O)N(Cc3ccccc3)C2=O)cc1
GI50 (OVCAR-4 ovarian): 47.4 µM | TGI (OVCAR-4 ovarian): > 100 µM | GI50 (OVCAR-5 ovarian): > 100 µM | TGI (OVCAR-5 ovarian): > 100 µM | GI50 (HT29 colon): 26.6 µM | TGI (HT29 colon): > 100 µM | GI50 (SF-268 CNS): 32.7 µM | TGI (SF-268 CNS): > 100 µM | GI50 (UACC-257 melanoma): 31.7 µM | TGI (UACC-257 melanoma): 96.9 µM | GI50 (K-562 leukemia): 3.67 µM | TGI (K-562 leukemia): 19.6 µM | GI50 (MDA-MB-435): 29.5 µM | TGI (MDA-MB-435): > 100 µM | GI50 (SR leukemia): 1.3 µM | TGI (SR leukemia): 4.4 µM | GI50 (RXF 393 renal): 23.7 µM | TGI (RXF 393 renal): 73 µM | GI50 (MCF7 breast): 11.6 µM | TGI (MCF7 breast): > 100 µM

C[C@@H]1C[C@H](C)CN(S(=O)(=O)c2ccc3c(NO)c4ccc(S(=O)(=O)N5C[C@H](C)C[C@H](C)C5)cc4c(N=O)c3c2)C1
GI50 (OVCAR-4 ovarian): 0.17 µM | TGI (OVCAR-4 ovarian): 0.346 µM | GI50 (OVCAR-5 ovarian): 0.173 µM | TGI (OVCAR-5 ovarian): 0.4 µM | GI50 (HT29 colon): 0.159 µM | TGI (HT29 colon): 0.313 µM | GI50 (SF-268 CNS): 0.0252 µM | TGI (SF-268 CNS): 0.0698 µM | GI50 (K-562 leukemia): 0.0356 µM | TGI (K-562 leukemia): 0.12 µM | GI50 (MDA-MB-435): 0.181 µM | TGI (MDA-MB-435): 0.397 µM | GI50 (SR leukemia): 0.0367 µM | TGI (SR leukemia): 0.215 µM | GI50 (RXF 393 renal): 0.158 µM | TGI (RXF 393 renal): 0.299 µM | GI50 (MCF7 breast): 0.176 µM | TGI (MCF7 breast): 0.357 µM

COc1ccc2cc(/C=C/C(=O)c3ccc(Cl)cc3Cl)ccc2c1
GI50 (OVCAR-4 ovarian): 74.1 µM | TGI (OVCAR-4 ovarian): > 100 µM | GI50 (OVCAR-5 ovarian): 45.7 µM | TGI (OVCAR-5 ovarian): > 100 µM | GI50 (SF-268 CNS): 32.9 µM | TGI (SF-268 CNS): > 100 µM | GI50 (UACC-257 melanoma): 39.5 µM | TGI (UACC-257 melanoma): > 100 µM | GI50 (K-562 leukemia): 20.5 µM | TGI (K-562 leukemia): 68.8 µM | GI50 (MDA-MB-435): 25.4 µM | TGI (MDA-MB-435): 75.3 µM | GI50 (SR leukemia): 9.19 µM | TGI (SR leukemia): 28.7 µM | GI50 (RXF 393 renal): 20.4 µM | TGI (RXF 393 renal): 65.6 µM | GI50 (MCF7 breast): 4.83 µM | TGI (MCF7 breast): 43.4 µM

OCc1ccc(N2CCc3cccc(F)c3C2)cc1Cl
GI50 (OVCAR-4 ovarian): 0.0279 µM | TGI (OVCAR-4 ovarian): 0.201 µM | GI50 (OVCAR-5 ovarian): 0.0253 µM | TGI (OVCAR-5 ovarian): 0.151 µM | GI50 (HT29 colon): 0.0334 µM | TGI (HT29 colon): 35.5 µM | GI50 (SF-268 CNS): 24.5 µM | TGI (SF-268 CNS): > 89.4 µM | GI50 (K-562 leukemia): < 0.0206 µM | TGI (K-562 leukemia): 16.5 µM | GI50 (MDA-MB-435): 19.5 µM | TGI (MDA-MB-435): 51.8 µM | GI50 (SR leukemia): 19.3 µM | TGI (SR leukemia): 58.8 µM | GI50 (RXF 393 renal): 12.6 µM | TGI (RXF 393 renal): 27.9 µM | TGI (MCF7 breast): 53.4 µM

Cc1[nH]nc(C(F)(F)F)c1N=NN(C)C
TGI (HT29 colon): 34.1 µM | TGI (SF-268 CNS): 24.1 µM | TGI (UACC-257 melanoma): 28.2 µM | TGI (K-562 leukemia): 11.9 µM | TGI (MDA-MB-435): 32.7 µM | TGI (SR leukemia): 18.8 µM | TGI (RXF 393 renal): 26.5 µM | TGI (MCF7 breast): 14.6 µM

Cn1c(-c2c(N)n(Nc3cccc(Cl)c3)c3nc(C#N)c(C#N)nc23)nc2ccccc21
GI50 (OVCAR-4 ovarian): 1.36 µM | TGI (OVCAR-4 ovarian): 16.4 µM | GI50 (SF-268 CNS): 10 µM | TGI (SF-268 CNS): 35.6 µM | GI50 (UACC-257 melanoma): 6.18 µM | TGI (UACC-257 melanoma): 15.9 µM | GI50 (K-562 leukemia): 5.43 µM | TGI (K-562 leukemia): 25.5 µM | GI50 (MDA-MB-435): 3.28 µM | TGI (MDA-MB-435): 14 µM | GI50 (SR leukemia): 2.53 µM | TGI (SR leukemia): 41.4 µM | GI50 (RXF 393 renal): 0.0138 µM | TGI (RXF 393 renal): 3.54 µM | GI50 (MCF7 breast): 4.96 µM | TGI (MCF7 breast): > 50 µM

COc1ccc(NC(=O)CSC2=C(Nc3cccc(Br)c3)C(=O)N(Cc3ccccc3)C2=O)cc1Cl
GI50 (OVCAR-4 ovarian): > 100 µM | TGI (OVCAR-4 ovarian): > 100 µM | GI50 (HT29 colon): > 100 µM | TGI (HT29 colon): > 100 µM | GI50 (SF-268 CNS): 21.5 µM | TGI (SF-268 CNS): > 100 µM | GI50 (UACC-257 melanoma): > 100 µM | TGI (UACC-257 melanoma): > 100 µM | GI50 (K-562 leukemia): 4.41 µM | TGI (K-562 leukemia): > 100 µM | GI50 (MDA-MB-435): > 100 µM | TGI (MDA-MB-435): > 100 µM | GI50 (SR leukemia): 3.02 µM | TGI (SR leukemia): 24.3 µM | GI50 (RXF 393 renal): > 100 µM | TGI (RXF 393 renal): > 100 µM | GI50 (MCF7 breast): 15.9 µM | TGI (MCF7 breast): > 100 µM

O=C1CC2C(=O)c3ccccc3CC2c2ccccc21 (centres undefined)
TGI (OVCAR-4 ovarian): > 100 µM | TGI (OVCAR-5 ovarian): > 100 µM | TGI (HT29 colon): > 100 µM | TGI (SF-268 CNS): > 100 µM | TGI (UACC-257 melanoma): 75.2 µM | TGI (K-562 leukemia): > 100 µM | TGI (MDA-MB-435): 55.3 µM | TGI (SR leukemia): 81.6 µM | TGI (MCF7 breast): > 100 µM
